Reference: patent US20160052926A1, “NOVEL PYRIMIDINE AND PYRIDINE COMPOUNDS AND USAGE THEREOF” (HUTCHISON MEDIPHARMA LIMITED, priority 2013, published 2016)

Tests used:
[1] = target: Recombinant human FGFR1 (Homo sapiens, UniProt P11362); test: Transcreener Kinase Assay of FGFR1; type: biochemical; details: read-out: FGFR1 (FP) IC50
Method: Transcreener Kinase Assay of FGFR1
(§1) Prepare Solution • Compounds were solved in DMSO and were diluted with assay buffer to 5 folds of final concentration keeping the DMSO concentration at 5%. Further dilution are needed to make final concentrations are at 1, 0.33, 0.11, 0.037, 0.012, 0.004, 0.0014, 0.0005 μM; (the final concentration of DMSO is 1%). • Enzyme/Substrate stock Preparation: Recombinant human FGFR1 and Poly E4Y are both diluted in assay buffer.
(§2) Enzymatic Reaction • In a 96-well plate, Add 5 μL of compound or control. (positive control: 5 μL of 5% DMSO; negative control: 5 μL of 500 mM EDTA) into desired wells; • Add 10 μL of Enzyme/Substrate stock into each well; • Add 10 μL of ATP Diluents to initiate the enzyme reaction and votex the plate immediately on a plate shaker; • For the wells to make standard curve, add 5 μL of 5% DMSO, 10 μL of assay buffer and 10 μL of ATP standard curve stock. • Incubate the plate for 45 min at 28[…] on a plate shaker in a low speed.
Excitation wavelength: 610 nm, Emission wavelength: 670 nm.
(§3) • [ADP] in Compound well represents the ADP concentration in compound well. • [ADP] in Positive control well represents the ADP concentration in 5% DMSO well • Conversion of mP value to ADP concentration is calculated based on the formula which determined by standard curve. And mP value is measured by following the instruction provided by BellBrook Labs. (www.bellbrooklabs.com). 6. IC50: calculated using XL-Fit 2.0 software.

[2] = target: Recombinant human FGFR2 (Homo sapiens, UniProt P21802); test: Transcreener Kinase Assay of FGFR2; type: biochemical; details: read-out: FGFR2 (FP) IC50
Recombinant human FGFR2, sequence (P21802 22-821): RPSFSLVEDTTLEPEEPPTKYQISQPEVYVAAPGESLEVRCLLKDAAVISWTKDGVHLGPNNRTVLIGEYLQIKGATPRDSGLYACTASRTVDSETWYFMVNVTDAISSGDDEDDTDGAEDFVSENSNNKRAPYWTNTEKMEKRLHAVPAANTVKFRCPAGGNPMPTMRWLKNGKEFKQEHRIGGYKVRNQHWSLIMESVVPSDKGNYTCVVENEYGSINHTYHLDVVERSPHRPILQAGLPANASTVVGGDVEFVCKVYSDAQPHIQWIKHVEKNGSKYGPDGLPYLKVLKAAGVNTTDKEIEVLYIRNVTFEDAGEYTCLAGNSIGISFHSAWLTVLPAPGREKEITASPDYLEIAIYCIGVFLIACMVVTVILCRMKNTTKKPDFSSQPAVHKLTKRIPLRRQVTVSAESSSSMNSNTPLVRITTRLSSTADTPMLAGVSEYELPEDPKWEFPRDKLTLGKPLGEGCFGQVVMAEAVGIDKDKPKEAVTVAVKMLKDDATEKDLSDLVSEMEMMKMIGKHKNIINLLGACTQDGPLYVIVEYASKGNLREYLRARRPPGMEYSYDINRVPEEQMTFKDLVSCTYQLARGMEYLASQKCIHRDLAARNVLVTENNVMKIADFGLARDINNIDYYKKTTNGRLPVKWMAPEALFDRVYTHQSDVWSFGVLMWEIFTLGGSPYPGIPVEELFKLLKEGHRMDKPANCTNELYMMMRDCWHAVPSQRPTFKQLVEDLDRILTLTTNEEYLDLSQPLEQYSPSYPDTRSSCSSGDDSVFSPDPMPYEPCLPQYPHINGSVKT
Method: Transcreener Kinase Assay of FGFR2
as §1, with “•” for “Prepare Solution •”, “FGFR2” for “FGFR1”, “buffer. The final concentration is 0.3 ng/μL for FGFR2 and 62.5 ng/μL for Poly E4Y. The mixture is being kept in ice before use; • Prepare ATP Diluents, 10 mM ATP is diluted in assay buffer, the final concentration is 25 μM; • Prepare ADP Diluents: diluted ADP (500 μM) in assay buffer, the final concentration is 25 μM; • Prepare ATP standard curve stock as following:” for “buffer.”
as §2, with “•” for “Enzymatic Reaction •”
• Detection Mix Preparation: The mixture is made by dilution with MilliQ water; as following: ADP Alexa633 tracer (1:100), ADP antibody (1:158), and stop & detect buffer (1:10); • Tracer Only control Preparation: The mixture is made by dilution with MilliQ water; as following: ADP Alexa633 tracer (1:100), and stop & detect buffer (1:10) • No Tracer control Preparation: stop & detect buffer is diluted with MilliQ water; by 10 fold. • Add 25 μL of detection mix, Tracer Only control and No Tracer control into corresponding wells, respectively; • Incubate at 28 °C for 1 h, on a plate shaker in a low speed; • Measure florescence polarization (FP) on TECAN F500. Excitation wavelength: 610 nm, Emission wavelength: 670 nm.
as §3

[3] = target: FGFR3 kinase (Homo sapiens, UniProt P22607); test: Z-Lyte Kinase Assay of FGFR3; type: biochemical
FGFR3 kinase, sequence (P22607 23-806): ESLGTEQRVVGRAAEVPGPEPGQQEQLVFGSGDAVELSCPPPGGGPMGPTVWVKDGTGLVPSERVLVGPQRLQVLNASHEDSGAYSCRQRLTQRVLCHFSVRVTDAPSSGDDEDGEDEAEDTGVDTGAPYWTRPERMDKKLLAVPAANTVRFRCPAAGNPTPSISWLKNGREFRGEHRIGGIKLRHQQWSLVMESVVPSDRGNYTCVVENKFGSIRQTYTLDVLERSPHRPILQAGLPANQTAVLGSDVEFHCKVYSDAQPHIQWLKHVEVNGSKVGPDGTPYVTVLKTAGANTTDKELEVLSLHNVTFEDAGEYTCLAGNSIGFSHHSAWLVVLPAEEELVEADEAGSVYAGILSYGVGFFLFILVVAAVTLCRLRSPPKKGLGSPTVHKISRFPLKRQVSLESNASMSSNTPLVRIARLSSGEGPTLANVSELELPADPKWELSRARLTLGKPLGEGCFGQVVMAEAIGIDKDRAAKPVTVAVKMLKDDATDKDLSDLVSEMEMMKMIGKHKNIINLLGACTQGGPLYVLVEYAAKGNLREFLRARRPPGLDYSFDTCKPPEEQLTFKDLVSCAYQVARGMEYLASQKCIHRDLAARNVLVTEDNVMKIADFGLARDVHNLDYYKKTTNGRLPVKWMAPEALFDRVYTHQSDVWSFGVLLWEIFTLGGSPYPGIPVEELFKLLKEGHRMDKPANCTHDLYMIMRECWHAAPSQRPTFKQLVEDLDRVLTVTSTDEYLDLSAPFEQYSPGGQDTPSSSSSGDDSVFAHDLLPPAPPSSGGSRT
Method: Z-Lyte Kinase Assay of FGFR3
The final concentrations are 1, 0.33, 0.11, 0.037, 0.012, 0.004, 0.0014, 0.00046 μM, and the final concentration of DMSO is 2%. • 3) Kinase/Peptide Mixture (P/K solution): Prepare Kinase/Peptide Mixture by diluting the kinase to 0.7 μg/ml and the Z-LYTE™ Tyr 4 peptide to 4 μM in 1.33× Kinase Buffer. Mix gently by pipetting. • 4) Phospho-peptide Solution (PP solution): Add 0.4 μl of Z-LYTE™ Tyr 4 Phospho-peptide to 99.6 μl of 1.33× Kinase Buffer. • 5) ATP Solution: Prepare ATP Solution by diluting the 10 mM of ATP in 1.33× Kinase Buffer to 300 uM. • 6) Development Solution: Dilute Development Reagent B with Development Buffer as 1:128.
Shake the plate for 30 Sec and centrifuge (1500 rpm, 1 min) • Seal the plate to protect from the light and incubate the plate for 1 hour at RT (25-30[…]) • 2) Development reaction • Add 5 μl of the Development solution to all wells • Shake the plate for 30 Sec and centrifuge (1500 rpm, 1 min) • Seal the plate to protect from the light and incubate the plate for 1 hour at RT (25-30[…]) • 3) Stop and read • Add 5 μl of the Stop reagent to all wells • Shake the plate for 30 Sec and centrifuge (1500 rpm, 1 min) • Measure the value of Coumarin (Ex400 nm, Em445 nm) and fluorescein (Ex400 nm, Em520 nm), respectively.
Inhibition rate(IR)=1−%Photest Cpd/%PhoC2
• determined with add-in software for Microsoft Excel, XLfit™ (version 2.0) from ID Business Solutions (Guildford, UK)

[4] = tested on: KG-1; test: Cellular Proliferation Assay (Cell Counting Kit-8), KG-1; type: cell-based; details: Homo sapiens, KG1 cells, 72 hours
Method: (§4) Cellular Proliferation Assay
(§5) • KG-1 (ATCC Accession No. CCL-246), • SNU-16 (ATCC Accession No. CRL-5974), • RT-112 (ECACC Accession No. 85061106)
(§6) • FGFR related cancer cell proliferation is measured in 96-well plates using Cell Counting Kit-8 (Dojindo CK04-13). • Seed 30000 cells/well of KG1, 5000 cells/well of SNU16, and 1000 cells/well of RT112 in a volume of 100 μL/well in growth media. • After 24 hours, dilute the compound to 10, 3.3, 1.1, 0.37, 0.12, 0.04, 0.013, 0.004 μM, keeping the DMSO concentration at 5%. • Add 10 μL of 8-point compound series to the wells of culturing cells. • Incubate at 37° C. and 5% CO2 for 72 hours • Add 10 μL/well of CCkit8 and incubate at 37° C. and 5% CO2 for an hour • Detect the optical density of each well at 450 nm on Labsystems Multiskan K3.
(§7) • ODcompound well represents the optical density of cells treated with compound. • ODcell well represents the optical density of cells without compounds treatment. (only 0.5% DMSO) • ODcontrol well represents the optical density of culture media background
(§8) The concentration of compound providing 50% of proliferation inhibition was calculated using Excel Fit.

[5] = tested on: SNU-16; test: Cellular Proliferation Assay (Cell Counting Kit-8), SNU-16; type: cell-based; details: Homo sapiens, SNU-16 cells, 72 hours
Method: as §4, §5, §6, §7, §8

Recombinant human FGFR1, sequence (P11362 22-822): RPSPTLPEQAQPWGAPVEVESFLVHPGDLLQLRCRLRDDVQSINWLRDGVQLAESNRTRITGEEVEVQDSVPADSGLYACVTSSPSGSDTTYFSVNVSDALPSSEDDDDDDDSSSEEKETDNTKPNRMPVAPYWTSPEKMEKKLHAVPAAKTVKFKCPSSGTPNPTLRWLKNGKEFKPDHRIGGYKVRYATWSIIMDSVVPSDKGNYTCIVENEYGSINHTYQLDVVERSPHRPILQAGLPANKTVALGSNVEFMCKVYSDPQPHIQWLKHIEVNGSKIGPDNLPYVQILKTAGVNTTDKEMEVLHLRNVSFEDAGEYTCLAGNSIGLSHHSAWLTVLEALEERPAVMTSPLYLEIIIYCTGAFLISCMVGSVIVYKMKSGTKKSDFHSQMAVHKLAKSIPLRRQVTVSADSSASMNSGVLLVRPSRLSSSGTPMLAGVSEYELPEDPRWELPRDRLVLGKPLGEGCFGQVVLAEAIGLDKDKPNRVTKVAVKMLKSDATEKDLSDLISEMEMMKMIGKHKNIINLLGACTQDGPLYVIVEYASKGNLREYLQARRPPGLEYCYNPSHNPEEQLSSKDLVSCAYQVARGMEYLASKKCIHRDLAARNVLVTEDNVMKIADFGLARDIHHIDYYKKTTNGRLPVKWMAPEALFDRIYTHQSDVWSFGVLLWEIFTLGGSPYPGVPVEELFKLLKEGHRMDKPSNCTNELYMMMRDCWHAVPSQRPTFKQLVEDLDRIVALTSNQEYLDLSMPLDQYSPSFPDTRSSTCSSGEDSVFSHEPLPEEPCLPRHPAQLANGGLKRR

Compound	IC50 [1] [nM]	IC50 [2] [nM]	IC50 [3] [nM]	IC50 [5] [nM]	IC50 [4] [nM]
CCN1CCN(c2ccc(Nc3ccc(CCc4cc(OC)cc(C(=O)NOC)c4)cn3)cn2)CC1 [Compound 75]	41	33	61	94	123
CCN1CCN(c2ccc(Nc3ncc(CCc4cc(OC)cc(C(=O)NOCCO)c4)cn3)cc2)CC1 [Compound 20, 3-(2-(2-((4-(4-ethylpiperazin-1-yl)phenyl)amino)pyrimidin-5-yl)ethyl)-N-(2-hydroxyethoxy)-5-methoxybenzamide]	43	34	128	340	589
CONC(=O)c1cc(CCc2cnc(Nc3cccc(N4C[C@@H](C)N[C@@H](C)C4)c3)nc2)cc(OC)c1 [Compound 18]	12	6	8	3	77
CONC(=O)c1cc(CCc2cnc(Nc3ccc(N4CCN(C)[C@H](C)C4)cc3)nc2)cc(OC)c1 [Compound 40]	12	10	39	48	31
CCN1CCN(c2ccc(Nc3ncc(/C=C/c4cc(OC)cc(C(=O)NOC)c4)cn3)cc2)CC1 [Compound 16]	12	8	16	17	13
CCN1CCN(c2ccc(Nc3ncc(CCc4cc(C(=O)NOC)cc5occc45)cn3)cc2)CC1 [Compound 5]	13	12	47	56	24
CONC(=O)c1cc(CCc2cnc(Nc3ccc(OCCN4CCCC4)cc3)nc2)cc(OC)c1 [Compound 43]	16	10	48	33	69
CNC(=O)c1cc(CCc2cnc(Nc3ccn(C)c(=O)c3)nc2)c(F)c(OC)c1 [Compound 93]	18	9	11	47	125
CONC(=O)c1cc(CCc2cnc(Nc3ccc(Cl)cc3)nc2)cc(OC)c1 [Compound 113]	48	18	146	89	148

Compounds with a lower IC50 [1], results first:

IC50 [1] [nM]	IC50 [2] [nM]	IC50 [3] [nM]	IC50 [5] [nM]	Compound	IC50 [4] [nM]
3	2	7	5	CONC(=O)c1cc(CCc2cnc(Nc3cnn(C)c3)nc2)c(F)c(OC)c1 [Compound 29]	5
6	6	8	74	CCN1CCN(c2ccc(Nc3ccc(CCc4cc(C(=O)NOC)cc(OC)c4C)cn3)cc2)CC1 [Compound 47]	63
4	6	9	24	CONC(=O)c1cc(CCc2cnc(Nc3ccc(N4C[C@@H](C)N[C@@H](C)C4)cc3)nc2)cc(OC)c1 [Compound 41]	38
4	4	9	17	CCN1CCN(c2ccc(Nc3ncc(CCc4cc(C(=O)NC)cc(OC)c4Cl)cn3)cc2)CC1 [Compound 56]	7
3	2	2	4	CCN1CCN(c2ccc(Nc3ncc(CCc4cc(C(=O)NOC)cc(OC)c4Cl)cn3)cc2)CC1 [Compound 59]	2
3	4	4	7	CCN1CCN(c2cccc(Nc3ncc(CCc4cc(OC)cc(C(=O)NOC)c4)cn3)c2)CC1 [Compound 14, 3-(2-(2-((3-(4-ethylpiperazin-1-yl)phenyl)amino)pyrimidin-5-yl)ethyl)-N,5-dimethoxybenzamide]	9
9	6	13	18	CONC(=O)c1cc(CCc2cnc(Nc3cnn(C)c3)nc2)cc(OC)c1 [Compound 23]	29
5	5	11	22	CONC(=O)c1cc(CCc2cnc(Nc3ccc(N4CCN(CCO)CC4)cc3)nc2)cc(OC)c1 [Compound 19, 3-(2-(2-((4-(4-(2-hydroxyethyl)piperazin-1-yl)phenyl)amino)pyrimidin-5-yl)ethyl)-N,5-dimethoxybenzamide]	19
1	2	5	5	CCN1CCN(c2ccc(Nc3ncc(CCc4cc(C(=O)NOC)cc(OC)c4C)cn3)cc2)CC1 [Compound 52]	4
10	7	16	44	CONC(=O)c1cc(CCc2cnc(Nc3ccc(N4CCOCC4)cc3)nc2)cc(OC)c1 [Compound 37]	46
2	4	8	15	CCN1CCN(c2ccc(Nc3ncc(CCc4cc(OC)cc(C(=O)NOC)c4)cn3)cn2)CC1 [Compound 42]	11
